Experimental data reported in ChEMBL document CHEMBL5649169 (ChemMedChem, 2018).

Experiments:
[1] = molecular target: ADP/ATP translocase 2 (Homo sapiens) (UniProt P05141)
[2] = molecular target: Low molecular weight phosphotyrosine protein phosphatase (Homo sapiens) (UniProt P24666)
[3] = molecular target: Small ribosomal subunit protein uS15 (Homo sapiens) (UniProt P62277)
[4] = molecular target: Heterogeneous nuclear ribonucleoprotein U-like protein 2 (Homo sapiens) (UniProt Q1KMD3)
[5] = molecular target: Microtubule-actin cross-linking factor 1, isoforms 1/2/3/4/5 (Homo sapiens) (UniProt Q9UPN3)
[6] = molecular target: 5'-AMP-activated protein kinase subunit beta-1 (Homo sapiens) (UniProt Q9Y478)
[7] = molecular target: Malate dehydrogenase, mitochondrial (Homo sapiens) (UniProt P40926)
[8] = molecular target: Squalene synthase (Homo sapiens) (UniProt P37268)
[9] = molecular target: 5'-AMP-activated protein kinase subunit gamma-2 (Homo sapiens) (UniProt Q9UGJ0)
[10] = molecular target: Dual specificity testis-specific protein kinase 2 (Homo sapiens) (UniProt Q96S53)
[11] = species: Homo sapiens
[12] = molecular target: 14-3-3 protein epsilon (Homo sapiens) (UniProt P62258)
[13] = molecular target: Eukaryotic translation initiation factor 4 gamma 1 (Homo sapiens) (UniProt Q04637)
[14] = molecular target: Ephrin type-A receptor 5 (Homo sapiens, UniProt P54756)
[15] = molecular target: Tubulin beta-5 chain (Homo sapiens) (UniProt P07437)
[16] = molecular target: ATP-dependent RNA helicase DDX3X (Homo sapiens) (UniProt O00571)
[17] = species: Homo sapiens; remark: listed apart in the source
[18] = molecular target: Pre-mRNA-processing factor 6 (Homo sapiens) (UniProt O94906)
[19] = molecular target: Nuclear pore complex protein Nup205 (Homo sapiens) (UniProt Q92621)
[20] = molecular target: Peroxiredoxin-4 (Homo sapiens) (UniProt Q13162)
[21] = molecular target: Bifunctional glutamate/proline--tRNA ligase (Homo sapiens) (UniProt P07814)
[22] = molecular target: Ephrin type-A receptor 4 (Homo sapiens, UniProt P54764)
[23] = molecular target: Bone morphogenetic protein receptor type-1B (Homo sapiens) (UniProt O00238)
[24] = molecular target: T-complex protein 1 subunit gamma (Homo sapiens) (UniProt P49368)
[25] = molecular target: Cyclin-dependent kinase 3 (Homo sapiens) (UniProt Q00526)
[26] = molecular target: T-complex protein 1 subunit beta (Homo sapiens) (UniProt P78371)
[27] = molecular target: Coatomer subunit gamma-2 (Homo sapiens) (UniProt Q9UBF2)
[28] = molecular target: Interleukin enhancer-binding factor 3 (Homo sapiens) (UniProt Q12906)
[29] = molecular target: Lamin-B1 (Homo sapiens) (UniProt P20700)
[30] = molecular target: Structural maintenance of chromosomes protein 2 (Homo sapiens) (UniProt O95347)
[31] = molecular target: E3 ubiquitin-protein ligase RNF213 (Homo sapiens) (UniProt Q63HN8)
[32] = molecular target: RNA-binding protein EWS (Homo sapiens) (UniProt Q01844)
[33] = molecular target: Ephrin type-A receptor 2 (Homo sapiens, UniProt P29317)
[34] = molecular target: Wee1-like protein kinase (Homo sapiens) (UniProt P30291)
[35] = molecular target: Receptor-interacting serine/threonine-protein kinase 2 (Homo sapiens) (UniProt O43353)
[36] = molecular target: Cleavage and polyadenylation specificity factor subunit 6 (Homo sapiens) (UniProt Q16630)
[37] = molecular target: Aromatic-L-amino-acid decarboxylase (Homo sapiens) (UniProt P20711)
[38] = molecular target: Transmembrane protein 43 (Homo sapiens) (UniProt Q9BTV4)
[39] = molecular target: Protein FAM83E (Homo sapiens) (UniProt Q2M2I3)
[40] = molecular target: RNA-binding protein FXR1 (Homo sapiens) (UniProt P51114)
[41] = molecular target: Derlin-1 (Homo sapiens) (UniProt Q9BUN8)
[42] = molecular target: Dipeptidyl peptidase 1 (Homo sapiens) (UniProt P53634)
[43] = molecular target: High mobility group protein B2 (Homo sapiens) (UniProt P26583)
[44] = molecular target: Double-strand break repair protein MRE11 (Homo sapiens) (UniProt P49959)
[45] = molecular target: B-cell receptor-associated protein 31 (Homo sapiens) (UniProt P51572)
[46] = molecular target: Flap endonuclease 1 (Homo sapiens) (UniProt P39748)
[47] = molecular target: AP2-associated protein kinase 1 (Homo sapiens) (UniProt Q2M2I8)
Further: assay method not described here.

Chain of Wee1-like protein kinase (Homo sapiens) (P30291 whole entry, looked up): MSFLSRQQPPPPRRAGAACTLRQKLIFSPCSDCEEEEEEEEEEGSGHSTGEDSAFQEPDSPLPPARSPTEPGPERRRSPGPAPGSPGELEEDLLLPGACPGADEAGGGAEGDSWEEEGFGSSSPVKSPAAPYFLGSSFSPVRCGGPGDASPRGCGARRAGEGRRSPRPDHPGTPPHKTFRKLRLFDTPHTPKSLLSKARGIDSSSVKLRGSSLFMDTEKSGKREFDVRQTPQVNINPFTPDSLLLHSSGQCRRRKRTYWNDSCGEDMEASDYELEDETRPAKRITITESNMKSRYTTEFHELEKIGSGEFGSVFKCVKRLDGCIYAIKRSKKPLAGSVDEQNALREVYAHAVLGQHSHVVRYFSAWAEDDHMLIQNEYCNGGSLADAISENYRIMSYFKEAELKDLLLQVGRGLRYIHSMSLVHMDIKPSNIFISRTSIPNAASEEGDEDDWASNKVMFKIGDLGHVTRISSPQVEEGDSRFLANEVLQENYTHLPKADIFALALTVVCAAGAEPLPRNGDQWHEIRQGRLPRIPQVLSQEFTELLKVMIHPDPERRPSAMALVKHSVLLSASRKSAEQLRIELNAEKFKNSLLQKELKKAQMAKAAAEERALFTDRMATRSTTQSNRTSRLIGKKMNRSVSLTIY
Chain of Peroxiredoxin-4 (Homo sapiens) (Q13162 whole entry): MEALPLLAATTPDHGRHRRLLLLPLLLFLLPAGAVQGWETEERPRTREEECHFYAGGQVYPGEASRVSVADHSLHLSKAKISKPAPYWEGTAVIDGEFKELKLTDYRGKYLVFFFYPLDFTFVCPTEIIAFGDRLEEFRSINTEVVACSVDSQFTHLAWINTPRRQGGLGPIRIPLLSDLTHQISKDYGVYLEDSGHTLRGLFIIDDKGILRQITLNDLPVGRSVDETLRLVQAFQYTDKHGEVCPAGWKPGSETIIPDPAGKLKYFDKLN
Chain of 5'-AMP-activated protein kinase subunit beta-1 (Homo sapiens) (Q9Y478 whole entry): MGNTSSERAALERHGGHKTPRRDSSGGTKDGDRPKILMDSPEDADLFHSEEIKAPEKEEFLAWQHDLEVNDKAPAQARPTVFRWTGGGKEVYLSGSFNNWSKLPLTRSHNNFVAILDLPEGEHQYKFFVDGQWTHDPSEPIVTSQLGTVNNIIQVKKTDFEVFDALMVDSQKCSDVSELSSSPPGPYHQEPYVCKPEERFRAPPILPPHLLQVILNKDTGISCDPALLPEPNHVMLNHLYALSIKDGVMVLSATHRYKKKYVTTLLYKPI
Chain of Low molecular weight phosphotyrosine protein phosphatase (Homo sapiens) (P24666 whole entry): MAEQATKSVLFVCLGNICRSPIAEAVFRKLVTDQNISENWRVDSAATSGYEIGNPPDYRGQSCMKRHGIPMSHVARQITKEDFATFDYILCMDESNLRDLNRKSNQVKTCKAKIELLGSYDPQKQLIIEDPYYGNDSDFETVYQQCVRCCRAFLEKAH
Chain of Bifunctional glutamate/proline--tRNA ligase (Homo sapiens) (P07814 whole entry): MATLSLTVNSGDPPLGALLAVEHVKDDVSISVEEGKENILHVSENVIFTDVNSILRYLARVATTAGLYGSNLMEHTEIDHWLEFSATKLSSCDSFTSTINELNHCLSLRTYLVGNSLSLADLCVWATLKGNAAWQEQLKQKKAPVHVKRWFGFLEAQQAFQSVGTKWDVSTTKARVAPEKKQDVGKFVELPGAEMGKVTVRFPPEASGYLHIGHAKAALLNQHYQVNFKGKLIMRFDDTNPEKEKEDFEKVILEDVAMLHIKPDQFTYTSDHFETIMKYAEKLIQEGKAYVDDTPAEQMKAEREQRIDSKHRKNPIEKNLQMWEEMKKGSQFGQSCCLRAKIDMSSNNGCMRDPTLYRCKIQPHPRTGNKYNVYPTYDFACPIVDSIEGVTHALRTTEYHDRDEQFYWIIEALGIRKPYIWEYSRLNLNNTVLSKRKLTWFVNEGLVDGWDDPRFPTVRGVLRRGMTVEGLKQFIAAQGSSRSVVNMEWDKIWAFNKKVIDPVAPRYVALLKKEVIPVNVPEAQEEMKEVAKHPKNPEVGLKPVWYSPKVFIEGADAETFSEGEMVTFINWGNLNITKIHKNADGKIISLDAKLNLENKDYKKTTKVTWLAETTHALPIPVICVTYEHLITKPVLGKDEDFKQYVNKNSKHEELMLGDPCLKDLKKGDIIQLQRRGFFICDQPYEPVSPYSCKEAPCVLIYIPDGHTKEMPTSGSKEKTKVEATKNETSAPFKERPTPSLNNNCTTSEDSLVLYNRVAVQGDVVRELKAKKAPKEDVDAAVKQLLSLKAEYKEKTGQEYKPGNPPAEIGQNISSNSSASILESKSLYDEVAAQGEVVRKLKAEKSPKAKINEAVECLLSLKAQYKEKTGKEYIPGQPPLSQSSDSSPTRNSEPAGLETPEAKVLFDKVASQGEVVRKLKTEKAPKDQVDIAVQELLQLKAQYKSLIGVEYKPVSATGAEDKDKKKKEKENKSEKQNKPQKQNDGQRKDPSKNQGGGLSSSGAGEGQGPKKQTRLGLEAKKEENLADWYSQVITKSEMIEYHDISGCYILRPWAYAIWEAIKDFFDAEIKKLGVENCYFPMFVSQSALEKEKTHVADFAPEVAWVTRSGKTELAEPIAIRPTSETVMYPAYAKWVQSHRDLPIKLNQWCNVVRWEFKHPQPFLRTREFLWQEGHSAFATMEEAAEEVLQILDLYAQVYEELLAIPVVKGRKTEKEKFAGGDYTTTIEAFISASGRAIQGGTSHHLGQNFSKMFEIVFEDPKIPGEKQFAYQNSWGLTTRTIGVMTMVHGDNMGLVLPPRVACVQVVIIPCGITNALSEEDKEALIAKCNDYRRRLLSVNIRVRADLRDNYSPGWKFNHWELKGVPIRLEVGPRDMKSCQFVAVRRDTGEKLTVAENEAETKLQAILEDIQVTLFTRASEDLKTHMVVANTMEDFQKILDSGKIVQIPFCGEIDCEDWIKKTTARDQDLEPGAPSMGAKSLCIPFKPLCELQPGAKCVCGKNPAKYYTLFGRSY
Chain of Bone morphogenetic protein receptor type-1B (Homo sapiens) (O00238 whole entry): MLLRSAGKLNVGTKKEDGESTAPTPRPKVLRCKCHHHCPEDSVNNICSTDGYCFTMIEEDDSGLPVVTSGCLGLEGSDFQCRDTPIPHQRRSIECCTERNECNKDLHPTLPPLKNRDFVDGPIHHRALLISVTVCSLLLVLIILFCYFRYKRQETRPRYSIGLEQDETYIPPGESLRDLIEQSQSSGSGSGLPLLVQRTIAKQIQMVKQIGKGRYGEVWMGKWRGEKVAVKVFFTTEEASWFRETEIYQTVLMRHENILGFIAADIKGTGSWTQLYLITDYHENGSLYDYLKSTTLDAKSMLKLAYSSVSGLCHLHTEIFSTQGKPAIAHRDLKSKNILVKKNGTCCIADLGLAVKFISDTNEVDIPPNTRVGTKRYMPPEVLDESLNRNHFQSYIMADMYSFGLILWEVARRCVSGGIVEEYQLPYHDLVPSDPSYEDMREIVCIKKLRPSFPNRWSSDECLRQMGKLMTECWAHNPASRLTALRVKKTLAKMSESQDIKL
Chain of Transmembrane protein 43 (Homo sapiens) (Q9BTV4 whole entry): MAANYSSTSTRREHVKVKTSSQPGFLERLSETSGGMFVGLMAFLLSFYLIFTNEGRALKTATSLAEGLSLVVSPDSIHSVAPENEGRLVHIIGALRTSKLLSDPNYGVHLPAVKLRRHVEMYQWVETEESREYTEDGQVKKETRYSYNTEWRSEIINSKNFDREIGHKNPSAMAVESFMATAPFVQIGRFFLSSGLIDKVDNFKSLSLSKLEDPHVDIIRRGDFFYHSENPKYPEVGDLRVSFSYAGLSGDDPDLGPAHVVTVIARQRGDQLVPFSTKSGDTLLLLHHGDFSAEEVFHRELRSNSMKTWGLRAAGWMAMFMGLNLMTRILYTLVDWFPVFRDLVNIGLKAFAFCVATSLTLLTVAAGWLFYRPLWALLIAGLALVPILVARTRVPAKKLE
Chain of Protein FAM83E (Homo sapiens) (Q2M2I3 whole entry): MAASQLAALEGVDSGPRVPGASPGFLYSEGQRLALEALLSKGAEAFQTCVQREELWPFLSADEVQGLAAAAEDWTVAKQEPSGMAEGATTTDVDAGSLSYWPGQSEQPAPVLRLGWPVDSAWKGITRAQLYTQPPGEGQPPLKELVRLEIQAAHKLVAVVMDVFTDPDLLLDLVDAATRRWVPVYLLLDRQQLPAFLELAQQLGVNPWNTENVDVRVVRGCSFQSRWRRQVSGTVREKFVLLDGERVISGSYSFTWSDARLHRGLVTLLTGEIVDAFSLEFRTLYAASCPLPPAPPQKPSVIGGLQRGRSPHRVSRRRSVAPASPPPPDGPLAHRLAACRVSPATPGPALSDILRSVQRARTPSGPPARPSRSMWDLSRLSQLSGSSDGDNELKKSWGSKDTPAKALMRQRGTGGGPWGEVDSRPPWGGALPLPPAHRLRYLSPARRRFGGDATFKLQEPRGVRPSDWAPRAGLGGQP
Chain of High mobility group protein B2 (Homo sapiens) (P26583 whole entry): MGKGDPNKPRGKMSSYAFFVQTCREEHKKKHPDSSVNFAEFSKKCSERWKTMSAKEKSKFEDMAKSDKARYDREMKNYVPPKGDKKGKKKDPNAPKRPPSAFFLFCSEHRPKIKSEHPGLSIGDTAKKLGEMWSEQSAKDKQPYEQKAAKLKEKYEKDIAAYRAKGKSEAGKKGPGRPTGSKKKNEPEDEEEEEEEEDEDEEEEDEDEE
Chain of Aromatic-L-amino-acid decarboxylase (Homo sapiens) (P20711 whole entry): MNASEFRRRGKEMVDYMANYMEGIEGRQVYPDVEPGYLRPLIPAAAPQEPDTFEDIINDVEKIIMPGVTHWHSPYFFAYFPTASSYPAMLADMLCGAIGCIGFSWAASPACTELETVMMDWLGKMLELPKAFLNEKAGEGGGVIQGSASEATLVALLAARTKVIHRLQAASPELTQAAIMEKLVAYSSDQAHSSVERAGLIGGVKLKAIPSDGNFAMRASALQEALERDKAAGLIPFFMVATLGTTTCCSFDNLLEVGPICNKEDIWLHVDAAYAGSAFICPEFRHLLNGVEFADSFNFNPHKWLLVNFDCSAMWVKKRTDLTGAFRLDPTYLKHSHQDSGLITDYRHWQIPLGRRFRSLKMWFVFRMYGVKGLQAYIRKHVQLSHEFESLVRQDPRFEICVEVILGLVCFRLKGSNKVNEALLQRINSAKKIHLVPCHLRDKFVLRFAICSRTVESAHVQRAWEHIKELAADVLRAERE

Compound: Cc1ccc(C(=O)Nc2cccc(C(F)(F)F)c2)cc1Nc1nc(-c2cccnc2)nc2c1cnn2C
- ED50 [1]: 2.54 µM
- ED50 [2]: 67.2 µM
- ED50 [3]: 2.21 µM
- ED50 [4]: 32000 µM
- ED50 [5]: 5.13 µM
- ED50 [6]: 3.25 µM
- ED50 [7]: 0.0198 µM
- ED50 [8]: 3.81 µM
- ED50 [9]: 57.4 µM
- ED50 [10]: 0.00136 µM
- ED50 [11]: 0.018 µM
- ED50 [12]: 6.15 µM
- ED50 [13]: 0.0238 µM
- ED50 [14]: 0.0633 µM
- ED50 [15]: 2.46 µM
- ED50 [16]: 3.01 µM
- ED50 [17]: 0.00517 µM
- ED50 [18]: 151 µM
- ED50 [19]: 2.26 µM
- ED50 [20]: 2.73 µM
- ED50 [21]: 0.0324 µM
- ED50 [22]: 1.13 µM
- ED50 [23]: 6290 µM
- ED50 [24]: 0.0644 µM
- ED50 [25]: 0.134 µM
- ED50 [26]: 0.0178 µM
- ED50 [27]: 7.49 µM
- ED50 [28]: 9.39 µM
- ED50 [29]: 13.8 µM
- ED50 [30]: 5.62 µM
- ED50 [31]: 53.8 µM
- ED50 [32]: 54.1 µM
- ED50 [33]: 0.58 µM
- ED50 [34]: 0.0311 µM
- ED50 [35]: 29.5 µM
- ED50 [36]: 15 µM
- ED50 [37]: 0.0409 µM
- ED50 [38]: 0.00615 µM
- ED50 [39]: 0.141 µM
- ED50 [40]: 0.00957 µM
- ED50 [41]: 13.9 µM
- ED50 [42]: 0.0113 µM
- ED50 [43]: 11.3 µM
- ED50 [44]: 2.59 µM
- ED50 [45]: 0.0691 µM
- ED50 [46]: 8.96 µM
- ED50 [47]: 6.19 µM

Compound: Cc1ccc(C(=O)Nc2cccc(C(F)(F)F)c2)cc1Nc1nc(-c2cccnc2)nc2nn(C)cc12
- ED50 [1]: 0.186 µM
- ED50 [2]: 0.0395 µM
- ED50 [3]: 0.00657 µM
- ED50 [4]: 0.175 µM
- ED50 [5]: 0.0234 µM
- ED50 [6]: 5.82 µM
- ED50 [7]: 0.0533 µM
- ED50 [8]: 2.93 µM
- ED50 [9]: 0.0408 µM
- ED50 [10]: 0.00616 µM
- ED50 [11]: 0.0558 µM
- ED50 [12]: 0.0477 µM
- ED50 [13]: 0.0778 µM
- ED50 [14]: 0.982 µM
- ED50 [15]: 0.00905 µM
- ED50 [16]: 0.00683 µM
- ED50 [17]: 22.8 µM
- ED50 [18]: 2.11 µM
- ED50 [19]: 1.17 µM
- ED50 [20]: 0.0305 µM
- ED50 [21]: 1.21 µM
- ED50 [22]: 5.1 µM
- ED50 [23]: 60.4 µM
- ED50 [24]: 0.09 µM
- ED50 [25]: 511 µM
- ED50 [26]: 0.0532 µM
- ED50 [27]: 0.051 µM
- ED50 [28]: 0.0174 µM
- ED50 [29]: 0.42 µM
- ED50 [30]: 0.0113 µM
- ED50 [31]: 0.595 µM
- ED50 [32]: 11.8 µM
- ED50 [33]: 6.17 µM
- ED50 [34]: 2.63 µM
- ED50 [35]: 0.073 µM
- ED50 [36]: 0.349 µM
- ED50 [37]: 1.52 µM
- ED50 [38]: 10.6 µM
- ED50 [39]: 155 µM
- ED50 [40]: 0.00197 µM
- ED50 [41]: 28 µM
- ED50 [42]: 1.88 µM
- ED50 [43]: 0.0527 µM
- ED50 [44]: 14.9 µM
- ED50 [45]: 1.7 µM
- ED50 [46]: 1.02 µM
- ED50 [47]: 1560 µM
